Assay results reported in US11141383B1, “Drug loaded flexible chitoplexes nanoparticles” (King Abdulaziz University, priority 2020, dated 2021).
Read-outs that look alike come from different tables or passages of the source.

Tests used:
[1] = tested on: human colorectal (HCT-116) cells; assay: Cell viability and cytotoxicity assay (MTT); assay type: cell-based; conditions: HCT-116, MTT
Procedure: This test aimed to determine the effect of the prepared RSV lipid-based NPs formulations on intestinal cell viability and cytotoxicity. The potential effects of both formulations on human colorectal (HCT-116) cells were assessed by 3-(4,5-dimethylthiazol-2-yl)2,5-diphenyl tetrazolium bromide (MTT) assay. Cells were seeded on 96-well plates (1×10^4 cells/well) and incubated at 37° C. under a humidified atmosphere of 5% CO2 for 24 h. […] Each formulation was compared with a drug-free carrier as a negative control. After incubation, SFM in the control and test wells were replaced by 100 μL/well of MTT solution (0.5 mg/ml) in PBS and incubated at 37° C. for another 3 h. The MTT solution was removed and the purple formazan crystals formed at the bottom of the wells were dissolved using 100 μL DMSO/well with shaking for 2 h at room temperature. The intensity of the color obtained was measured at 549 nm using a microplate reader (ELX 800; Bio-Tek Instruments, Winooski, Vt., USA). Data, expressed as the percentage of viable cells, were compared to the survival of a control group. Values of the half maximal inhibitory concentration (IC50) were also estimated. Cells treated with DMSO only were defined as 100%
To examine the biocompatibility and cytotoxic effects of plain and drug loaded liposomal NPs or chitoplexes nano-formulation, HCT-116 cells were treated with different concentrations of these samples for 3 days and the MTT assay was performed to investigate the effect of these formulation on the viability of living cells. This test depends on the production of a colored formazan by the action of the viable cells' mitochondrial enzymes on MTT. Cells were exposed to increasing RSV concentrations of drug loaded liposomal NPs and chitoplexes nano-formulation standardized at certain RSV concentrations. Cells were also incubated with blank liposomal NPs and chitoplexes nano-formulation to exclude the effect of RSV. […]

[2] = In vitro release study (dialysis bag, phosphate buffer pH 7.4); assay type: physicochemical
Procedure: The in vitro release of RSV from the prepared liposomal NPs, chitoplexes nano-formulation and pure drug suspension was studied. A quantity of each preparation containing 9 mg of drug was placed in a firmly sealed dialysis bag (Sigma-Aldrich Inc.) of a molecular weight cut-off 14 kDa. The dialysis bag was immersed in a glass bottle containing 400 mL phosphate buffer of pH 7.4. The bottles were kept in a shaking water bath (Model 1031; GFL Corporation, Burgwedel, Germany) at 37° C. and 100 rpm. The parameters of the in vitro release study were selected to achieve a sink condition. Aliquots of 2 mL were taken from the receptor compartment at predetermined time intervals with immediate replacement. The quantity of RSV in the withdrawn samples was determined spectrophotometrically at 242 nm. The experiment was done in triplicate for each formulation and mean values were calculated.

[3] = cited from earlier work
[4] = cited from earlier work; remark: listed apart in the source

SMILES: CC(C)c1nc(N(C)S(C)(=O)=O)nc(-c2ccc(F)cc2)c1/C=C/[C@@H](O)C[C@@H](O)CC(=O)O [RSV pure, Rosuvastatin]
- IC50 ([1]; after 24 h, read-out: IC50 (μM) after 24 h): 248 µM
- IC50 ([1]; after 48 h, read-out: IC50 (μM) after 48 h): 237 µM
- IC50 ([1]; after 72 h, read-out: IC50 (μM) after 72 h): 168 µM
- drug release after 24 h ([2]; dialysis bag 14 kDa, phosphate buffer pH 7.4, 37° C., 100 rpm, 24 h): 37.28±2.86%
- drug release pattern ([2]; dialysis bag, phosphate buffer pH 7.4, FIG. 4): overall low drug release pattern
- water solubility [3]: low
- elimination half-life ([4]; in vivo): ~19 h
- excreted in feces ([4]; in vivo): 90%
- time to maximum plasma concentration ([4]; in vivo): 3 to 5 h
- bound to plasma protein ([4]; mainly to serum albumin): 88%
- oral bioavailability ([4]; oral): ~20%
- orally administered dose absorbed ([4]; oral): about 25%
